# Test results reported in PubChem BioAssay (NCI).
#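 Cells were grown in 96-well plates and exposed to each compound for 48 hours at five concentrations; endpoints were interpolated linearly between bracketing concentrations, or set to the highest concentration if not reached. GI50 = concentration required for 50% inhibition of growth. TGI denotes the concentration required for complete inhibition of growth.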
# How the values were obtained:
# Assay in all cases: DTP human tumour cell line panel, 48 h
# T-47D breast = tested on: T-47D breast
# CAKI-1 renal = tested on: CAKI-1 renal
# HS 578T breast = tested on: HS 578T breast
# SNB-19 CNS = tested on: SNB-19 CNS
# PC-3 prostate = tested on: PC-3 prostate
# A549 NSCLC = tested on: A549 NSCLC
# HT29 colon = tested on: HT29 colon
# IGROV1 ovarian = tested on: IGROV1 ovarian
# SR leukemia = tested on: SR leukemia
# HOP-62 NSCLC = tested on: HOP-62 NSCLC
SMILES,GI50 (T-47D breast),TGI (T-47D breast),GI50 (CAKI-1 renal),TGI (CAKI-1 renal),GI50 (HS 578T breast),TGI (HS 578T breast),GI50 (SNB-19 CNS),TGI (SNB-19 CNS),GI50 (PC-3 prostate),TGI (PC-3 prostate),GI50 (A549 NSCLC),TGI (A549 NSCLC),GI50 (HT29 colon),TGI (HT29 colon),GI50 (IGROV1 ovarian),TGI (IGROV1 ovarian),GI50 (SR leukemia),GI50 (HOP-62 NSCLC),TGI (HOP-62 NSCLC),TGI (SR leukemia)
Cc1ccn2c(-c3csc(Nc4cccc(O)c4)n3)c(C)nc2c1,0.878 µM,10.8 µM,1.21 µM,21.2 µM,1.17 µM,29.3 µM,4.66 µM,77.4 µM,0.609 µM,29.6 µM,0.896 µM,26.1 µM,4.13 µM,18 µM,4.43 µM,29.1 µM,0.2 µM,0.638 µM,19.1 µM,
[CH3][Sn]([CH3])([CH3])[O]C(=O)C(O)c1ccccc1 (centres undefined),12.7 µM,> 100 µM,4.95 µM,34.5 µM,11.5 µM,59.8 µM,17 µM,> 89.2 µM,2.4 µM,> 100 µM,4.72 µM,49.1 µM,3.45 µM,31.6 µM,8.47 µM,> 87.3 µM,20.7 µM,2.12 µM,4.4 µM,> 100 µM
N#Cc1ccc(N2Cc3cc(Cl)ccc3OC3=C2C(=O)N(Cc2ccc(F)cc2)C3=O)cc1,0.502 µM,1.18 µM,0.186 µM,0.38 µM,1.02 µM,13.6 µM,1.54 µM,9.24 µM,0.8 µM,2.5 µM,7.34 µM,23.2 µM,0.587 µM,1.35 µM,0.804 µM,2.14 µM,0.275 µM,2.72 µM,10.1 µM,1.12 µM
CC(=O)NC1CCCN(O)C(=O)/C=C(/C)CCOC(=O)C(NC(C)=O)CCCN(O)C(=O)/C=C(/C)CCOC(=O)C(NC(C)=O)CCCN(O)C(=O)/C=C(/C)CCOC1=O.[Fe] (centres undefined),> 100 µM,> 100 µM,> 100 µM,> 100 µM,> 100 µM,> 100 µM,> 100 µM,> 100 µM,> 100 µM,> 100 µM,> 100 µM,> 100 µM,> 100 µM,> 100 µM,> 100 µM,> 100 µM,> 100 µM,> 100 µM,> 100 µM,> 100 µM
Nc1cccc2c1CN(C1CCC(=O)NC1=O)C2=O (centres undefined),> 100 µM,> 100 µM,> 100 µM,> 100 µM,> 100 µM,> 100 µM,> 100 µM,> 100 µM,> 100 µM,> 100 µM,> 100 µM,> 100 µM,> 100 µM,> 100 µM,> 100 µM,> 100 µM,> 100 µM,> 100 µM,> 100 µM,> 100 µM
O=S1CCN(Cc2ccc(-c3ccc4ncnc(Nc5ccc(OCc6ccccc6)c(F)c5)c4c3)o2)CC1,3.22 µM,> 19.2 µM,0.394 µM,> 25 µM,8.89 µM,> 25 µM,23.4 µM,> 25 µM,9.98 µM,> 25 µM,7.55 µM,> 25 µM,5.21 µM,> 25 µM,1.29 µM,> 25 µM,9.29 µM,13.8 µM,> 25 µM,> 25 µM
O=NNc1ccc(Sc2ccc3ccccc3c2)cn1,,77.9 µM,,> 100 µM,,> 100 µM,,> 100 µM,,> 100 µM,,> 100 µM,,> 100 µM,,> 100 µM,,,50.2 µM,> 100 µM
NC(Cc1ccc(O)cc1)C(=O)N/N=C/c1ccc(N(CCCl)CCCl)cc1 (centres undefined),10.1 µM,> 100 µM,1.83 µM,18.4 µM,32 µM,> 100 µM,29.9 µM,> 100 µM,11.7 µM,> 100 µM,6.39 µM,> 100 µM,28.5 µM,> 100 µM,11.5 µM,> 100 µM,0.189 µM,11.1 µM,> 100 µM,20.4 µM
COC(=O)c1c2c(c(C)[n+]([O-])c1C)C(=O)C=C(NCc1ccc(Br)cc1)C2=O,0.141 µM,2.09 µM,0.0597 µM,1.64 µM,2.4 µM,8.05 µM,1.23 µM,2.48 µM,0.428 µM,3.37 µM,0.705 µM,2.74 µM,0.339 µM,> 100 µM,0.473 µM,2.14 µM,1.7 µM,1.05 µM,2.47 µM,> 100 µM
